Tests used:
[1] = tested on: Ovarian follicular cells, lines 100B-OR-5A, 100B5-OR-B, 100B5-OR-D; assay: 8-Br-cAMP / FSH stimulation of progesterone secretion by cultured follicular cells; format: cell-based, human; conditions: 1 mM 8-Br-cAMP, 24 hours
Procedure: (§1) Cells in SC-2 were propagated and sub-cultured as above more than 20 times. […] Quantitative radioimmune assays (RIA) were employed as described in Radioassay Systems in Clinical Endocrinology, 1981, Ed. G. E. Abraham, {Basel: Marcel Dekker}, pp. 475-529. Progesterone, testosterone, estradiol, prolactin, thyroid stimulating hormone and luteinizing hormone were assayed by the Coat-a-Count procedure (Diagnostic Products Corp., Los Angeles).
Ovarian follicular cells, lines 100B-OR-5A, 100B5-OR-B, and 100B5-OR-D, were established in culture as described in Example 1 and maintained and sub-cultured as described in Example 2. From these lines were created sub-cultures designated 1, 2, and 3 respectively, which were employed in the stimulation protocol described below.

[2] = tested on: Human pancreas cells at passage generation 47; assay: Effect of amino acids on glucose stimulated insulin secretion (Example 20); format: cell-based; conditions: for insulin secretion, +10 mM alanine / insulin secretion, +20 mM arginine: 90 minutes
Procedure: Human pancreas cells at passage generation 47, were prepared for the experiment as described in Example 17 above. The cells were incubated in 6 parts PDM plus 1 part DMSS medium at a concentration of 10^5 cells/ml, at various concentrations of glucose. Alanine (10 mM) or arginine(20 mM) were added, and the cells were incubated for 90 minutes, at which time samples were collected for assay of insulin content.

human follicular cells = assay: Long-term hormone secretion of follicular sub-cultures with added testosterone substrate (Example 2); format: cell-based; design: dose or concentration left out as unconfirmed; conditions: testosterone added as substrate for steroid production
Procedure: as §1, with “Angeles). Follicle-stimulating hormone and B-hCG were assayed by the SERONO MATAclone procedure (Serono, Italy).” for “Angeles).”
Conclusions: Using this method, human follicular cells were propagated in culture and transferred to serial subcultures which continued to proliferate and to secrete hormones.

SMILES: Nc1ncnc2c1nc(Br)n2[C@@H]1O[C@@H]2COP(=O)(O)O[C@H]2[C@H]1O [8-Br-cAMP]
- Prog ([1]; culture 1): 24.5 ng/10^6 cells
- Prog ([1]; culture 2): 12.9 ng/10^6 cells
- Prog ([1]; culture 3): 20.8 ng/10^6 cells

SMILES: C[C@H](N)C(=O)O [alanine, Alanine]
- increase of insulin secretion over that stimulated by glucose alone ([2]; 10 mM alanine at 2 mM glucose): 1.25 fold
- insulin secretion stimulated over the intermediate level of secretion ([2]; 10 mM alanine together with 1 mM glucose, 1.5 hours): approximately 1.13 fold
- insulin secretion, +10 mM alanine ([2]; total 1 mM glucose): 103
- insulin secretion, +10 mM alanine ([2]; total 2 mM glucose): 135
- insulin secretion, +10 mM alanine ([2]; total 6 mM glucose): 127
- insulin secretion, +10 mM alanine ([2]; total 11 mM glucose): 117
- insulin secretion, +10 mM alanine ([2]; total 16 mM glucose): 101
- insulin secretion, +10 mM alanine ([2]; total 22 mM glucose): 87

SMILES: N=C(N)NCCC[C@H](N)C(=O)O [arginine]
- insulin secretion, +20 mM arginine ([2]; total 1 mM glucose): 128
- insulin secretion, +20 mM arginine ([2]; total 2 mM glucose): 134
- insulin secretion, +20 mM arginine ([2]; total 6 mM glucose): 105
- insulin secretion, +20 mM arginine ([2]; total 11 mM glucose): 93
- insulin secretion, +20 mM arginine ([2]; total 16 mM glucose): 99
- insulin secretion, +20 mM arginine ([2]; total 22 mM glucose): 94

SMILES: C[C@]12CC[C@H]3[C@@H](CCC4=CC(=O)CC[C@@]43C)[C@@H]1CC[C@@H]2O [testosterone]
- time subcultures continued to secrete hormones after first placed in culture (human follicular cells): ≤ 16 months

— patent publication US6372493B1, “Hormone-secreting cells maintained in long-term culture” (Pacific Biomedical Research, Inc. [Cell Mart, Inc.], priority 1991, dated 2002)
